Consider 79 compounds from the METLIN SMRT retention time set (Domingo-Almenara et al. 2019).

A short description of this data set: gradient 5% acetonitrile 3 min, to 50% in 2 min, to 85% in 15 min, held 3 min, 100 µL/min. To be noted: column: Zorbax Extend-C18 2.1 x 50 mm; eluents: water / acetonitrile, 0.1% formic acid. In short, it runs like this:
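Mixtures of ~100 pure standards were chromatographed on a Zorbax Extend-C18 column (2.1 × 50 mm, 1.8 μm) at 100 μL/min using water and acetonitrile, each with 0.1% formic acid. Detection used a quadrupole time-of-flight mass spectrometer in positive and negative ionization mode, and data collection spanned 3 months. Retention time was obtained from adduct peaks picked computationally and each checked manually.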
The compound `CCCn1c(=O)c2cc(C(=O)NCc3ccc(C)cc3)nn2c2ccccc21` displayed an RP-LC retention time of 1030 s.

In turn, `CC(C)c1nnc(-c2coc(S(=O)(=O)N3CCN(c4ccccn4)CC3)c2)o1` yielded an RP-LC retention time of 657 s.

As to `O=C(N[C@H]1C[C@@H]2C[C@H]1CN2C(=O)c1ccc2c(c1)OCO2)c1cccs1`, the RP-LC retention time came out at 871 s.

In turn, `O=C(Nc1cccnc1)C1CCCN(c2ncnc3c2nc2n3CCCCC2)C1` (centres undefined) displayed an RP-LC retention time of 603 s.

The compound `Cc1ccccc1CC(=O)NC(C)C(=O)Nc1nc2ccccc2[nH]1` (centres undefined) registered an RP-LC retention time of 654 s.

In turn, `CSc1ccc(-c2nc3cnccn3c2Nc2ccc(C)cc2C)cc1` gave an RP-LC retention time of 644 s.

For `O=S(=O)(c1ccc(-c2nnc(C3CCCC3)o2)o1)N1CCCC1`, the RP-LC retention time came out at 933 s.

Compound `Cc1nc2cc(-c3noc(CNC(=O)Cc4ccc(Cl)cc4)n3)ccc2n(C2CCCC2)c1=O` registered an RP-LC retention time of 1020 s.

In the case of `Cc1ccc(CNC(=O)Cn2nc(C)c3nn(-c4ccccc4)c(-n4cccc4)c3c2=O)o1`, the RP-LC retention time was determined as 946 s.

In the case of `O=C1COc2cc(S(=O)(=O)N3CCCC3C(=O)Nc3ccccc3)c(Cl)cc2N1` (centres undefined), the RP-LC retention time came out at 768 s.

As to `O=C(CSc1nc2ccccc2s1)NCCn1nc(-c2ccco2)ccc1=O`, the RP-LC retention time amounted to 687 s.

`O=C(CSc1cc(-n2cccn2)ncn1)Nc1cccc(Cl)c1F` displayed an RP-LC retention time of 965 s.

As for `O=C1CCCCC(C(=O)Nc2ccc3c(c2)OCCO3)N1` (centres undefined), the RP-LC retention time came out at 669 s.

For `CC(C)NCc1ccc(-c2ccccc2Cl)o1`, the RP-LC retention time was 673 s.

In turn, `COC(=O)c1ccc(NC(=O)C2CCCN2S(=O)(=O)c2ccc(F)cc2)cc1` (centres undefined) showed an RP-LC retention time of 641 s.

`CCc1ccc(C2=NN(CCC(=O)NC(C)c3ccc4c(c3)OCCO4)C(=O)CC2)cc1` (centres undefined) returned an RP-LC retention time of 832 s.

For `C[C@@H]1CCC2[C@](C)(CO)[C@@H](O)CC[C@]2(C)[C@]12CCC(CO)(CCO)O2` (some centres undefined), the RP-LC retention time was 829 s.

Take `COCCOC1CCC12CCN(S(=O)(=O)c1ccccc1C)CC2` (centres undefined): the RP-LC retention time was 983 s.

`CC(C)Sc1ccc(CC(=O)N2CC(c3nc(-c4ncccn4)no3)C2)cc1` registered an RP-LC retention time of 732 s.

As for `COc1ccc(CNC(=O)Cn2c(N)nc(C)cc2=O)cc1`, the RP-LC retention time came out at 603 s.

The compound `Cc1ccc2c(Nc3cccc(C#N)c3)c(C(=O)N3CCCC3)cnc2n1` yielded an RP-LC retention time of 579 s.

With `O=C(NC1CCCC1)C1CCN(S(=O)(=O)c2cc(C(=O)N3CCCCCC3)cs2)CC1`, the RP-LC retention time worked out at 836 s.

On to `CCOC(=O)C1=C(C)N(CC(=O)N2CCCC2)c2ncnn2C1c1ccc(C)cc1` (centres undefined), for which the RP-LC retention time stood at 824 s.

In turn, `CCOc1ccc(C(=O)Nc2ccc(-c3cn4ccc(C)nc4n3)cc2)cc1OCC` had an RP-LC retention time of 684 s.

`CCc1nn2c(CNS(=O)(=O)c3ccc(Cl)cc3)c(-c3ccccc3)nc2s1` yielded an RP-LC retention time of 1000 s.

The compound `O=c1ccc(-c2ccc(F)cc2)nn1CCc1nc(-c2ccc(F)c(Br)c2)no1` showed an RP-LC retention time of 1120 s.

Regarding `CN(C)C(=O)c1csc(S(=O)(=O)N2CCC(C(=O)NCc3cccs3)CC2)c1`, the RP-LC retention time worked out at 718 s.

For `CN1CCC2(CC1)CN(S(=O)(=O)N(C)C)CC2C(=O)N1CCc2ccccc21` (centres undefined), the RP-LC retention time was found to be 631 s.

Compound `CCCNC(=O)C1CCCN(c2ncnc3c2nc2n3CCCCC2)C1` (centres undefined) had an RP-LC retention time of 650 s.

`Cn1nc(CNC(=O)CNC(=O)Cc2ccc(Cl)cc2)c2ccccc21` came in with an RP-LC retention time of 742 s.

`Cc1ccc(C)c(-c2coc(-c3ccc(NC(=O)NCc4cccc(F)c4)cc3)n2)c1` gave an RP-LC retention time of 1190 s.

For `CCN1C(=O)c2cccnc2Sc2cc(CNC(=O)c3ccc(NC(C)=O)cc3)ccc21`, the RP-LC retention time came out at 654 s.

On to `COc1cc(C)c2c(c1C=O)Oc1c(c(C)c(O)c3c1C(O)OC3=O)OC2=O` (centres undefined), for which the RP-LC retention time is 840 s.

The compound `CCOc1ccc(NC(=O)C2CC(=O)N(CCc3c[nH]c4ccc(Cl)cc34)C2)cc1` (centres undefined) came in with an RP-LC retention time of 870 s.

The compound `Cc1ccc(C)c(NS(=O)(=O)c2cc(-c3cc(C(F)(F)F)on3)sc2C)c1` yielded an RP-LC retention time of 1320 s.

For `Cc1ccc2nc(NC(=O)CN3CCc4nc(NC(=O)C5CC5)sc4C3)sc2c1`, the RP-LC retention time amounted to 600 s.

`CCCSCCCNC(=O)CN1C(=O)CCn2nc(-c3cn(C)c4ccccc34)cc21` gave an RP-LC retention time of 832 s.

With `Cn1cc(-c2cc3n(n2)CCC(=O)N3CC(=O)NCC2COCCO2)c2ccccc21` (centres undefined), the RP-LC retention time amounted to 667 s.

`CSc1nnc(C)c(=O)n1COC(=O)c1cc(C(F)(F)F)cc(C(F)(F)F)c1` yielded an RP-LC retention time of 932 s.

`O=C(NCCC1=CCCCC1)c1nc(-c2ccnc(N3CCOCC3)c2)no1` displayed an RP-LC retention time of 962 s.

Compound `CC1Oc2ccc(S(=O)(=O)N3CCC(C(=O)Nc4cccc(Cl)c4)CC3)cc2NC1=O` (centres undefined) yielded an RP-LC retention time of 891 s.

In the case of `O=C(Cc1cccc(F)c1)Nc1nnc(C2CC(=O)N(c3ccc(Cl)cc3)C2)o1` (centres undefined), the RP-LC retention time worked out at 800 s.

Compound `CCCN1CCN(C(=O)CCc2c(C)c(C(=O)OCC)n(C)c2C)CC1` returned an RP-LC retention time of 641 s.

In turn, `COc1ccc(N2CCN(c3cc(SCC(=O)Nc4ccc(C)c(Cl)c4)ncn3)CC2)cc1` yielded an RP-LC retention time of 1100 s.

As for `Cc1cccc(NC(=O)N2CCCC(Cn3cnc4cccnc43)C2)c1C` (centres undefined), the RP-LC retention time is 672 s.

In turn, `CCCN1CCN(C(=O)CCCn2c3ccccc3c3cnn(C)c(=O)c32)CC1` returned an RP-LC retention time of 600 s.

As for `O=C(c1ccco1)N1CCN(C(=O)c2sc3ncccc3c2-n2cccc2)CC1`, the RP-LC retention time came out at 753 s.

Turning to `CCN(CC)S(=O)(=O)c1ccc2c(c1)N(CC(=O)NC1CC1)C(=O)C1CCCCN21` (centres undefined), the RP-LC retention time is 681 s.

`CCCn1c(=O)c2cc(C(=O)Nc3cc(Cl)ccc3F)nn2c2ccccc21` showed an RP-LC retention time of 1220 s.

`Cc1ccc(N2CCN(C(=O)c3cn4cc(Cl)ccc4n3)CC2)cc1`: the RP-LC retention time is 830 s.

As for `COC(=O)c1ccccc1NC(=O)C1CCCN(c2ncnc3onc(-c4ccc(F)cc4)c23)C1` (centres undefined), the RP-LC retention time was 1130 s.

Regarding `CSc1nnc(-c2nn(C)c3c2CN(C(=O)c2c(F)cccc2Cl)CC3)n1C`, the RP-LC retention time is 728 s.

Regarding `Cc1ccn2cc(-c3ccc(NC(=O)c4ccc(Br)cc4)cc3)nc2n1`, the RP-LC retention time was found to be 698 s.

`CCCC(=O)Nc1cccc(NC(=O)c2ccccc2Br)c1` gave an RP-LC retention time of 863 s.

`Cn1c(=O)n([C@H]2CCN(C(=O)c3ccco3)C2)c2ncccc21`: the RP-LC retention time was found to be 656 s.

Turning to `CCS(=O)(=O)Nc1ccc(-c2noc(CNS(=O)(=O)c3ccccc3)n2)cc1`, the RP-LC retention time turned out to be 720 s.

Take `CCCn1cc(S(=O)(=O)NCc2ccc(C)cc2)c2cccnc21`: the RP-LC retention time worked out at 951 s.

Consider `CC(C)c1ccc(NC(=O)Cn2nc3n(c2=O)CCCCC3)cc1`, for which the RP-LC retention time stood at 779 s.

For the compound `Cc1ccccc1Cn1c(CN2CCC(C(=O)N3CCCCCC3)CC2)cc2ccccc21`, the RP-LC retention time was 838 s.

`COc1ccccc1C(=O)Nc1cnc(N2CCCC2)nc1` gave an RP-LC retention time of 731 s.

With `COc1cccc(CCC(=O)N2CCN(c3nc(CN4CCC(C)CC4)cs3)CC2)c1`, the RP-LC retention time came to 681 s.

`Cc1ccc(CN2CCN(C3CCN(S(=O)(=O)c4ccc(F)c(Cl)c4)CC3)C(=O)C2=O)cc1` came in with an RP-LC retention time of 926 s.

`O=C(c1cn2ccccc2n1)N1CCN(c2ccccc2F)CC1` showed an RP-LC retention time of 652 s.

Compound `CCOc1ccc(-c2nc3ncccn3c2NCc2ccc(C)cc2)cc1` yielded an RP-LC retention time of 800 s.

`COc1cccc(-n2cc(C(=O)OCCc3ccccn3)c3ccccc3c2=O)c1` displayed an RP-LC retention time of 714 s.

Compound `COc1cccc(CNC(=O)C2CCc3nc(N4CCOCC4)ncc3C2)c1` (centres undefined) registered an RP-LC retention time of 660 s.

With `CC1CCN(c2cc(-n3cnc(C(=O)NC4CCCC4)c3)ncn2)CC1`, the RP-LC retention time amounted to 968 s.

As for `Cc1cc(C)cc(S(=O)(=O)N2CCC(CN3CCCCCC3)CC2)c1`, the RP-LC retention time is 708 s.

`CC1SC(C)C(=O)N(CC(=O)Nc2ccc3c(c2)OCCO3)C1=O` (centres undefined) came in with an RP-LC retention time of 735 s.

In the case of `COc1ccc(NC(=O)Cn2nc3c(Oc4ccccc4C)nccn3c2=O)cc1`, the RP-LC retention time is 790 s.

For the compound `Cc1cc(NC(=O)CN(C)c2nc3c(Cl)cccc3s2)no1`, the RP-LC retention time was 809 s.

In turn, `CCC(=O)Nc1ccc(N2CCN(CC(=O)N(C)C)CC2)cc1C(=O)O` displayed an RP-LC retention time of 573 s.

`CCn1cc(CN2CCCC(Cn3cc(COC)nn3)C2)c2ccccc21` (centres undefined) came in with an RP-LC retention time of 565 s.

`COc1ccc(-c2nc(N(CCCN3CCOCC3)Cc3ccco3)c3ccccc3n2)cc1` gave an RP-LC retention time of 588 s.

For the compound `Cc1ccc(-c2c(C)noc2C)cc1S(=O)(=O)Nc1ccccc1`, the RP-LC retention time was found to be 932 s.

In the case of `O=S(=O)(CCc1noc(-c2ccc3c(c2)OCO3)n1)c1ccc(Cl)cc1`, the RP-LC retention time worked out at 979 s.

`c1ccc(-c2noc(-c3ccccc3OC3CNC3)n2)cc1` returned an RP-LC retention time of 679 s.

In turn, `CCc1cc(C2CCCN2C(=O)NCCc2ccccc2)on1` (centres undefined) showed an RP-LC retention time of 789 s.

For `Cc1ccc(S(=O)(=O)c2ccccc2[N+](=O)[O-])cc1`, the RP-LC retention time was found to be 874 s.
